Reference: US10500207B2, “Compounds for the treatment of diseases associated with amyloid or amyloid-like proteins” (AC Immune SA, priority 2010, dated 2019)

Biological target: Aβ1-42 peptide (Homo sapiens, UniProt P05067)
Test: Thioflavin T spectrofluorescence assay (ThT-assay): inhibition of Aβ1-42 aggregation (% inhibition at 330 μM; IC50 from dilution series)
Conditions: for inhibition at 330 µM: 24 h, read-out: Inhibition at 330 μM [%], ThT assay; for inhibition at 330 µM / Inhibition at 330 μM [%]: 330 μM small molecule, 33 μM Aβ1-42 (10:1), 24 hrs at 37° C., mean ± standard deviation of two independent experiments; for IC50 / Inhibition at 330 μM [%]: ThT assay; for IC50: dilution series 330 μM to 0.08 μM
Procedure: Aβ1-42 lyophilized powder (Bachem) was reconstituted in hexafluoroisopropanol (HFIP) to 1 mM. The peptide solution was sonicated for 15 min at room temperature, agitated overnight, and aliquots were made into non-siliconized microcentrifuge tubes. The HFIP was then evaporated under a stream of argon. The resulting peptide film was dried under vacuum for 10 min, tightly sealed and stored at −80° C. until used.
A positive control without a small molecule was prepared to measure maximum RFU. A negative control without Aβ1-42 was prepared for each small molecule. […] The solutions were then incubated for 24 hrs at 37° C., and the spectrofluorescence (relative fluorescence units; RFU) were read in six replicates in black 384-well assay plates (Perkin-Elmer) on a Perkin-Elmer FluoroCount spectrofluorometer. The inhibition of aggregation is expressed as mean % inhibition±1 standard deviation (SD) according to the following equation:
Racemic compounds and their enantiomers were tested for their ability to inhibit amyloid peptide aggregation using the ThT assay. To determine the IC50, the following dilutions of the compounds were used in the ThT assay described above:

Sequence of Aβ1-42 peptide (P05067 672-713 limits assumed): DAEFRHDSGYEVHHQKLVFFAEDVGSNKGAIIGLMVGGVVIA

SMILES | inhibition at 330 µM | other results
CNC1CCc2c(c3ccc(Nc4ccc5c(c4)OCCO5)nc3n2C)C1 (racemic) [Example 156] | 85.1 ± 0.8% | IC50 (IC50 μM 1st assay, 1st assay): 39.7 µM; IC50 (IC50 μM 2nd assay, 2nd assay): 26.7 µM
CNC1CCc2c(c3ccc(Nc4ccc(F)c(F)c4)nc3n2C)C1 (single isomer, unassigned) [Example 214a] |  | IC50 (IC50 μM 1st assay, 1st assay): 35.4 µM; IC50 (IC50 μM 2nd assay, 2nd assay): 33.5 µM
CNC1CCc2c(c3ccc(Nc4ccc(F)c(F)c4)nc3n2C)C1 (single isomer, unassigned) [Example 214b] |  | IC50 (IC50 μM 1st assay, 1st assay): 13.4 µM; IC50 (IC50 μM 2nd assay, 2nd assay): 7.7 µM
CNC1CCc2c(c3ccc(Nc4ccc(N5CCOCC5)cc4)nc3n2C)C1 (single isomer, unassigned) [Example 216a] |  | IC50 (IC50 μM 1st assay, 1st assay): 99.3 µM; IC50 (IC50 μM 2nd assay, 2nd assay): 54.9 µM
CNC1CCc2c(c3ccc(Nc4ccc(N5CCOCC5)cc4)nc3n2C)C1 (single isomer, unassigned) [Example 216b] |  | IC50 (IC50 μM 1st assay, 1st assay): 45 µM; IC50 (IC50 μM 2nd assay, 2nd assay): 34.5 µM
CNC1CCc2c(c3ccc(Nc4ccc5c(c4)OCCO5)nc3n2C)C1 (single isomer, unassigned) [Example 217a] |  | IC50 (IC50 μM 1st assay, 1st assay): 28 µM; IC50 (IC50 μM 2nd assay, 2nd assay): 23.6 µM
CNC1CCc2c(c3ccc(Nc4ccc5c(c4)OCCO5)nc3n2C)C1 (single isomer, unassigned) [Example 217b] |  | IC50 (IC50 μM 1st assay, 1st assay): 6.6 µM; IC50 (IC50 μM 2nd assay, 2nd assay): 5.9 µM
CN(C)C(=O)c1ccc(Nc2ccc3cc[nH]c3n2)cc1 [Example 5] |  | Inhibition at 330 μM [%]: no inhibition
CN(C)C(=O)c1cccc(Nc2ccc3cc[nH]c3n2)c1 [Example 7] |  | Inhibition at 330 μM [%]: no inhibition
CN1CCC(c2c[nH]c3cc(Nc4cccc(N5CCOCC5)c4)ccc23)CC1 [Example 20] | 92.8 ± 0.1% | 
CN1CCC(c2c[nH]c3ccc(Nc4ccc(F)c(F)c4)cc23)CC1 [Example 21] | 74 ± 2.7% | 
CN1CCC(c2c[nH]c3cc(Nc4ccc(F)c(F)c4)ccc23)CC1 [Example 22] | 84.5 ± 6.8% | 
CN1CCC(c2c[nH]c3cc(N4CCc5ccccc5C4)ccc23)CC1 [Example 23] | 97.8 ± 1.5% | 
CNC1CCc2[nH]c3nc(Nc4cc(F)c(F)cc4F)ccc3c2C1 (stereo not drawn) [Example 27] | 86.7 ± 0.8% | 
CNC1CCc2c(c3ccc(Nc4cc(F)c(F)cc4F)nc3n2C)C1 (stereo not drawn) [Example 28] | 91.4 ± 2.9% | 
CNC1CCc2c(c3ccc(Nc4cc(F)cc(F)c4)nc3n2C)C1 (stereo not drawn) [Example 29] | 85.4 ± 0.4% | 
CNC1CCc2c(c3ccc(Nc4cc(F)c(F)c(F)c4)nc3n2C)C1 (stereo not drawn) [Example 30] | 84.3 ± 3.1% | 
CNC1CCc2[nH]c3nc(Nc4ccc5c(C6CCNCC6)c[nH]c5c4)ccc3c2C1 (stereo not drawn) [Example 31] | 96.5 ± 0.6% | 
N#Cc1c[nH]c2nc(Nc3cnc4c(C5CCNCC5)c[nH]c4c3)ccc12 [Example 34] | 79.2 ± 16.2% | 
c1nc2c(C3CCNCC3)c[nH]c2cc1Nc1ccc2c3c([nH]c2n1)CCCC3 [Example 35] | 97.7 ± 0.3% | 
c1cc2c(C3CCNCC3)c[nH]c2cc1Nc1ccc2[nH]cc(C3CCNCC3)c2c1 [Example 36] | 98.2 ± 0.3% | 
FC1(CNc2ccc3c(C4CCNCC4)c[nH]c3n2)CCNCC1 [Example 37] | 47.4 ± 5.2% | 
Cn1cc(C2CCNCC2)c2ccc(Nc3ccc(F)c(F)c3)cc21 [Example 38] | 90.9 ± 2.7% | 

SMILES | inhibition at 330 µM | other results
c1cc2c(cc1Nc1ccc3c(C4CCNCC4)c[nH]c3c1)OCO2 [Example 41] | 98 ± 0.5% | 
c1cc2c(C3CCNCC3)c[nH]c2nc1Nc1ccc2c3c([nH]c2n1)CCCC3 [Example 44] | 98.1 ± 0.3% | 
c1nc2[nH]cc(C3CCNCC3)c2cc1Nc1ccc2c3c([nH]c2n1)CCCC3 [Example 45] | 96.5 ± 3.7% | 
FC(F)(F)c1ccc(Nc2ccc3c(C4CCNCC4)c[nH]c3c2)cn1 [Example 49] | 81.9 ± 0.6% | 
c1cc2c(C3CCNCC3)c[nH]c2nc1NCC1CCNCC1 [Example 50] | 67.5 ± 0.1% | 
c1nc2[nH]cc(C3CCNCC3)c2cc1Nc1ccc2c3c([nH]c2n1)CCC3 [Example 51] | 95.5 ± 1% | 
Cn1cc(C2CCNCC2)c2cc(Nc3ccc4c(C5CCNCC5)cn(C)c4c3)ccc21 [Example 53] | 96 ± 2.1% | 
CN(c1ccc2c(c1)c(C1CCNCC1)cn2C)c1ccc2c(C3CCNCC3)cn(C)c2c1 [Example 54] | 96 ± 2.7% | 
Cn1cc(C2CCNCC2)c2cc(Nc3ccc(F)c(F)c3)ccc21 [Example 57] | 85.1 ± 3.2% | 
Cn1cc(C2CCNCC2)c2cc(Nc3ccc4c5c([nH]c4n3)CCC5)ccc21 [Example 59] | 99 ± 0.3% | 
c1cc(Nc2ccc3c(C4CCNCC4)c[nH]c3c2)cc(N2CCOCC2)c1 [Example 62] | 99.7 ± 0.3% | 
c1cc2c(C3CCNCC3)c[nH]c2cc1Nc1ccc2c(C3CCNCC3)c[nH]c2c1 [Example 63] | 91.5 ± 2.5% | 
CN1CCC(c2c[nH]c3ccc(Nc4ccc5c(C6CCNCC6)c[nH]c5c4)cc23)CC1 [Example 64] | 95.4 ± 0.3% | 
c1cc2c(cc1Nc1ccc3c(C4CCNCC4)c[nH]c3c1)CCC2 [Example 65] | 95.9 ± 1.3% | 
Cn1cc(C2CCNCC2)c2ccc(Nc3ccc4c(c3)OCO4)nc21 [Example 66] | 85.1 ± 0.8% | 
CN1CCC(c2c[nH]c3cc(Nc4ccc5[nH]cc(C6CCNCC6)c5c4)ccc23)CC1 [Example 68] | 90.4 ± 5.3% | 
Cn1cc(C2CCNCC2)c2ccc(Nc3cccc(N4CCOCC4)c3)cc21 [Example 70] | 91 ± 1.2% | 
c1ccc2c(c1)CCN(c1ccc3c(C4CCNCC4)c[nH]c3c1)C2 [Example 72] | 97.9 ± 0.5% | 
c1cc(N2CCOCC2)ccc1Nc1ccc2c(C3CCNCC3)c[nH]c2c1 [Example 73] | 99.2 ± 0.3% | 
CN1CCC(c2cn(C)c3cc(Nc4cccc(N5CCOCC5)c4)ccc23)CC1 [Example 75] | 97.1 ± 2% | 
CN(C)C1CCc2[nH]c3ccc(Nc4ccc(N5CCOCC5)cc4)cc3c2C1 (stereo not drawn) [Example 76] | 96.9 ± 2.3% | 
CN1CCN(c2ccc(Nc3ccc4[nH]c5c(c4c3)CC(N(C)C)CC5)cc2)CC1 (stereo not drawn) [Example 77] | 98 ± 0.6% | 

More lines, main results first:

inhibition at 330 µM | SMILES | other results
93.4 ± 3.9% | CNC1CCc2c(c3ccc(Nc4ccc(F)c(F)c4)nc3n2C)C1 (racemic) [Example 26, N^2-(3,4-difluorophenyl)-N^8,9-dimethyl-6,7,8,9-tetrahydro-5H-pyrido[2,3-b]indole-2,6-diamine hydrogenchloride] | IC50 (IC50 μM 1st assay, 1st assay): 12.2 µM; IC50 (IC50 μM 2nd assay, 2nd assay): 16.8 µM
96.2 ± 2.8% | CNC1CCc2c(c3ccc(Nc4ccc(N5CCOCC5)cc4)nc3n2C)C1 (racemic) [Example 42] | IC50 (IC50 μM 1st assay, 1st assay): 63 µM; IC50 (IC50 μM 2nd assay, 2nd assay): 112 µM
69.5 ± 4.5% | c1ccc(CCNc2ccc3cc[nH]c3n2)nc1 [Example 1] | 
47.4 ± 8.9% | c1ccc(CNc2ccc3cc[nH]c3n2)nc1 [Example 2] | 
56.6 ± 23% | Fc1ccc(Nc2ccc3cc[nH]c3n2)cc1F [Example 3] | 
53.5 ± 0.4% | FC(F)(F)c1ccc(Nc2ccc3cc[nH]c3n2)cn1 [Example 4] | 
60.1 ± 3.5% | Fc1cc(F)cc(Nc2ccc3cc[nH]c3n2)c1 [Example 6] | 
74.7 ± 6.8% | c1cc2ccc(Nc3ccc4cc[nH]c4n3)nc2[nH]1 [Example 8] | 
70.8 ± 9.2% | c1ccc(Nc2ccc3cc[nH]c3n2)nc1 [Example 9] | 
62.7 ± 4% | Fc1ccc(Nc2ccc3cc[nH]c3n2)cc1 [Example 10] | 
86.2 ± 8.6% | c1cc2cc(Nc3ccc4cc[nH]c4n3)cnc2[nH]1 [Example 11] | 
75.3 ± 14.5% | c1cc2ccc(Nc3ccc4cc[nH]c4n3)cc2[nH]1 [Example 12] | 
97.8 ± 1.8% | c1cc2ncc(Nc3ccc4cc[nH]c4n3)cc2[nH]1 [Example 13] | 
58.6 ± 9.5% | N#Cc1c[nH]c2nc(Nc3ccc(F)cc3)ccc12 [Example 15] | 
93.7 ± 2.1% | c1cc2cc(Nc3ccc4cc[nH]c4c3)ccc2[nH]1 [Example 16] | 
96.3% | c1cc2ccc(Nc3ccc4cc[nH]c4c3)cc2[nH]1 [Example 17] | 
97 ± 1.2% | c1cc2cc(Nc3ccc4cc[nH]c4n3)ccc2[nH]1 [Example 18] | 

inhibition at 330 µM | SMILES | other results
77.4 ± 15.6% | CNC1CCc2[nH]c3nc(Nc4ccc(F)c(F)c4)ccc3c2C1 (stereo not drawn) [Example 24] | 
63.4 ± 9% | CNC1CCc2[nH]c3nc(Nc4ccc(C(F)(F)F)nc4)ccc3c2C1 (stereo not drawn) [Example 25] | 
94.7 ± 1% | COC(=O)c1c[nH]c2nc(Nc3ccc4c(C5CCNCC5)c[nH]c4c3)ccc12 [Example 32] | 
94.8 ± 1% | c1cc2c(cc1Nc1ccc3c(C4CCNCC4)c[nH]c3n1)CCC2 [Example 40] | 
48.4 ± 20.3% | c1cc2ccc(NC3CCNCC3)nc2[nH]1 [Example 43] | 
99.4% | c1cc2c(C3CCNCC3)c[nH]c2cc1Nc1ccc2c3c([nH]c2n1)CCC3 [Example 46] | 
99.1 ± 0.5% | c1cc2[nH]cc(C3CCNCC3)c2cc1Nc1ccc2c3c([nH]c2n1)CCC3 [Example 47] | 
92 ± 0.8% | c1cc2c(C3CCNCC3)c[nH]c2cc1Nc1ccc2c(C3CCNCC3)c[nH]c2n1 [Example 48] | 
83.6 ± 2.8% | Fc1ccc(Nc2ccc3c(C4CCNCC4)c[nH]c3c2)cc1F [Example 52] | 
75.8 ± 0.8% | Fc1ccc(Nc2ccc3[nH]cc(C4CCNCC4)c3c2)cc1F [Example 55] | 
58.5 ± 2.7% | FC(F)(F)c1ccc(Nc2ccc3[nH]cc(C4CCNCC4)c3c2)cn1 [Example 56] | 
83.1 ± 3.4% | Fc1ccc(Nc2ccc3c(C4CCNCC4)c[nH]c3n2)cc1F [Example 60] | 
83 ± 2.1% | FC(F)(F)c1ccc(Nc2ccc3c(C4CCNCC4)c[nH]c3n2)cn1 [Example 61] | 
87.8 ± 4.2% | Cn1cc(C2CCNCC2)c2ccc(Nc3ccc(F)c(F)c3)nc21 [Example 67] | 
86.5 ± 7.2% | c1cc(N2CCOCC2)ccc1Nc1ccc2c(C3CCNCC3)c[nH]c2n1 [Example 69] | 
90.7 ± 3% | Cn1cc(C2CCNCC2)c2ccc(Nc3ccc(N4CCOCC4)cc3)nc21 [Example 71] | 
